{
  "source": "paper PMC4482694",
  "about": "“Machine Learning Models and Pathway Genome Data Base for Trypanosoma cruzi Drug Discovery” (PLoS Neglected Tropical Diseases, 2015)",
  "key": {"T. cruzi CA-I/72": {"system": "T. cruzi CA-I/72", "assay": "Secondary screening (dose-response assay)", "type": "cell-based, Trypanosoma cruzi", "protocol": "(§1) T. cruzi CA-I/72 trypomastigotes were obtained from C2C12 infected-culture supernatants after 4–7 days of infection. Cultures were maintained at 37°C with 5% CO2. […] Compounds were added at 10 mM in 50 nl per well using a Biomek FX (Beckman Coulter) for a final 10 μM concentration in 50 μl total volume, and 2,500 parasites were added in 10 μl per well. The plate was incubated for 72 hours at 37°C with 5% CO2. After the incubation, the plate was fixed with the addition of 50 μl of 8% paraformaldehyde solution, followed by two successive washing steps using PBS. Finally, a staining solution containing 0.5 μg/ml of 4',6-diamidino-2-phenylindole (DAPI) was added to each well of the plate and incubated for at least 4 hours prior to reading. Images were acquired by an IN Cell Analyzer 2000 (GE Healthcare) and analyzed by IN Cell Analyzer Developer 1.6 software. […] Numbers of host cells and intracellular amastigotes were determined based on host cell and parasite nucleus quantification, providing a measure of growth inhibition during the first 72 h of post-infection treatment compared to untreated controls. […] The host cell viability was assessed based on the total number of cells divided by the average number of cells from untreated controls (0.1% DMSO), being <0.5 considered a cytotoxic compound. This assay was performed in duplicate.\nThe hit selection criteria: >50% activity at 10 μM and >0.5 host cell viability in the primary screening. To determine the potency of the hit compounds, we performed a dose-response assay. EC50 values of compounds were determined applying the same assay used in the primary screening. […] Then, 50 nl of each sample were diluted in 50 μl media (DMEM H-21) and added to the experimental plate followed by incubation at 37°C with 5% CO2 for 72 h."}, "Host cell cytotoxicity": {"assay": "Host cell cytotoxicity", "type": "cell-based", "conditions": "mouse; C2C12 host cells", "protocol": "as §1"}, "[1]": {"system": "transgenic T.cruzi Brazil luc strain", "assay": "4-day mouse model of infection, luciferase readout", "type": "in vivo, Trypanosoma cruzi", "conditions": "for Chagas mouse model (4 days treatment, luciferase): In vivo efficacy at 50 mg/kg bid (IP): Balb/c mice, 50 mg/kg b.i.d. IP, read at day 7 post-infection, benznidazole = 100%, vehicle = 0%", "excerpt": "To assess in vivo efficacy of test compounds, a 4-day mouse model of infection by transgenic T.cruzi Brazil luc strain expressing firefly luciferase was used as previously described. Six-week-old female Balb/c mice (average weight 20g) were obtained from Simonsen Labs (Gilroy, CA). All animal protocols were approved and carried out in accordance with the guidelines established by the Institutional Animal Care and Use Committee from UCSD (Protocol S14187). Mice were housed at a maximum of 5 per cage and kept in a specific-pathogen-free (SPF) room at 20 to 24°C under a 12-h light/12-h dark cycle and provided with sterilized water and chow ad libitum. To infect the mice, trypomastigotes of T. cruzi Brazil luc strain were used. The parasites were harvested from culture supernatant 7 days after the infection of C2C12 myocytes in T.75 culture flasks using DMEM media supplemented with 5% FBS. The harvested parasites were counted and the density was adjusted for 10^6 parasites per milliliter of DMEM media without FBS. For the mouse infection, 100 ul of the parasite solution was injected intraperitoneally (10^5 trypomastigotes) per mouse. Starting on day 3 the infected mice were treated with test compounds at 50 mg/kg administered in 20% Kolliphor, IP, b.i.d., for four consecutive days. Two control groups included untreated mice, which received a vehicle (20% Kolliphor HS 15, a.k.a. Solutol), and the positive control groups, which received 50 mg/kg benznidazole, IP, twice a day (b.i.d). At day 7 post-infection, the luminescent signal from infected mice was read upon injection of D-luciferin. The absolute numbers of measured photons/s/cm^2 were averaged between all five mice in each group. The average photons/s/cm^2 from the group treated with benznidazole was normalized as 100% efficacy and the average photons/s/cm^2 from the group treated with vehicle only was normalized as 0% efficacy. Using a linear correlation, the average photons/s/cm^2 of each compound was normalized in the same efficacy scale as the controls."}, "[2]": {"target": "T. cruzi Tulahuen genetically modified to express Beta-galactosidase", "conditions": "cited from earlier work; for EC50: Broad dataset, read-out: EC50 in the Broad dose response dataset"}, "T. cruzi": {"system": "T. cruzi", "design": "method as in PMID 21912715", "conditions": "retest of Broad HTS hits in one study; cited from earlier work"}, "[3]": {"conditions": "Trypanosoma cruzi, C2C12, 72 h, intracellular T. cruzi in C2C12 cells, 72 h, read-out: EC50"}, "[4]": {"conditions": "Trypanosoma cruzi, intracellular T. cruzi in C2C12 cells, 72 h, read-out: EC90"}, "[5]": {"conditions": "intracellular T. cruzi in C2C12 cells, 72 h, read-out: EC50"}},
  "note": "Structures can show the parent of a compound that is named as a salt. Where two headings read alike, the source gives them in different places.",
  "data": [
    {"smiles": "NC(=O)N/N=C/c1ccc([N+](=O)[O-])o1", "note": "[SC-0011754, Nitrofural]", "values": [
      {"measurement": "EC50", "setting": "T. cruzi CA-I/72; [3]", "result": "< 1000", "unit": "nM"},
      {"measurement": "EC90", "setting": "T. cruzi CA-I/72; [4]", "result": 6980, "unit": "nM"},
      {"measurement": "EC50", "setting": "T. cruzi CA-I/72; [5]", "result": 775, "unit": "nM"},
      {"measurement": "CC50 at 72 h", "setting": "Host cell cytotoxicity", "result": "> 10000", "unit": "nM"}
    ]},
    {"smiles": "COc1ccc(CCN(C)CCCC(C#N)(c2ccc(OC)c(OC)c2)C(C)C)cc1OC", "note": "(racemic) [SC-0005695, (±)-Verapamil hydrochloride]", "values": [
      {"measurement": "EC90", "setting": "T. cruzi CA-I/72; Trypanosoma cruzi, C2C12, 72 h", "result": 143, "unit": "nM"},
      {"measurement": "EC50", "setting": "T. cruzi CA-I/72; intracellular T. cruzi in C2C12 cells, 72 h, listed as (±)-Verapamil hydrochloride", "result": 38.3, "unit": "nM"},
      {"measurement": "EC50", "setting": "T. cruzi CA-I/72; intracellular T. cruzi in C2C12 cells, 72 h, listed as verapamil", "result": "< 1000", "unit": "nM"},
      {"measurement": "Chagas mouse model (4 days treatment, luciferase): In vivo efficacy at 50 mg/kg bid (IP)", "setting": "[1]", "result": 55.1, "unit": "%"},
      {"measurement": "EC50", "setting": "[2]", "result": "< 100", "unit": "nM"},
      {"measurement": "IC50", "setting": "T. cruzi", "result": "> 50000", "unit": "nM"}
    ]},
    {"smiles": "O=C1OCCN1/N=C/c1ccc([N+](=O)[O-])o1", "note": "[SC-0011742, Furazolidone]", "values": [
      {"measurement": "Chagas mouse model (4 days treatment, luciferase): In vivo efficacy at 50 mg/kg bid (IP)", "setting": "[1]; listed as Furazolidone, 50 mg/kg", "result": 100.5, "unit": "%"},
      {"measurement": "Chagas mouse model (4 days treatment, luciferase): In vivo efficacy at 50 mg/kg bid (IP)", "setting": "[1]; listed as furazolidone, 50 mg/kg", "result": 100, "unit": "%"}
    ]},
    {"smiles": "O=C(NCO)N/N=C/c1ccc([N+](=O)[O-])o1", "note": "[hydroxymethylnitrofurazone, Hydroxymethylnitrofurazone]", "values": [
      {"measurement": "Chagas mouse model (4 days treatment, luciferase): In vivo efficacy at 50 mg/kg bid (IP)", "setting": "[1]; 50 mg/kg", "result": 78.5, "unit": "%"}
    ]},
    {"smiles": "COc1ccc2cc1Oc1ccc(cc1)C[C@H]1c3cc(c(OC)cc3CCN1C)Oc1c(OC)c(OC)cc3c1[C@H](C2)N(C)CC3", "note": "[SC-0011496, Tetrandrine]", "values": [
      {"measurement": "EC50", "setting": "T. cruzi CA-I/72; [3]", "result": "< 1000", "unit": "nM"},
      {"measurement": "EC90", "setting": "T. cruzi CA-I/72; [4]", "result": 1570, "unit": "nM"},
      {"measurement": "EC50", "setting": "T. cruzi CA-I/72; [5]", "result": 508, "unit": "nM"},
      {"measurement": "CC50 at 72 h", "setting": "Host cell cytotoxicity", "result": 1300, "unit": "nM"},
      {"measurement": "Chagas mouse model (4 days treatment, luciferase): In vivo efficacy at 50 mg/kg bid (IP)", "setting": "[1]", "result": 43.6, "unit": "%"},
      {"measurement": "Statistical significance of in vivo efficacy", "setting": "[1]; Student t test vs vehicle at day 7, p≤ 0.05", "result": "does not appear to have statistically significant efficacy in vivo"},
      {"measurement": "Result in the larger Broad HTS screening dataset to identify inhibitors of replication", "setting": "[2]", "result": "inactive"}
    ]},
    {"smiles": "O=C(Cn1ccnc1[N+](=O)[O-])NCc1ccccc1", "note": "[Benznidazole]", "values": [
      {"measurement": "Chagas mouse model (4 days treatment, luciferase): In vivo efficacy at 50 mg/kg bid (IP)", "setting": "[1]", "result": 100, "unit": "%"}
    ]},
    {"smiles": "COc1ccc2nc3cc(Cl)ccc3c(Nc3cc(CN4CCCC4)c(O)c(CN4CCCC4)c3)c2n1", "note": "[SC-0011799, Pyronaridine]", "values": [
      {"measurement": "EC90", "setting": "T. cruzi CA-I/72; [4]", "result": 665, "unit": "nM"},
      {"measurement": "EC50", "setting": "T. cruzi CA-I/72; intracellular T. cruzi in C2C12 cells, 72 h, listed as Pyronaridine, read-out: EC50", "result": 225, "unit": "nM"},
      {"measurement": "EC50", "setting": "T. cruzi CA-I/72; intracellular T. cruzi in C2C12 cells, 72 h, listed as pyronaridine, read-out: EC50", "result": "< 1000", "unit": "nM"},
      {"measurement": "CC50 at 72 h", "setting": "Host cell cytotoxicity", "result": 3000, "unit": "nM"},
      {"measurement": "Chagas mouse model (4 days treatment, luciferase): In vivo efficacy at 50 mg/kg bid (IP)", "setting": "[1]", "result": 85.2, "unit": "%"},
      {"measurement": "EC50", "setting": "[2]", "result": "< 587", "unit": "nM"}
    ]}
  ]
}
